Test results from patent publication US8227207B2, “Bioactive peptides derived from the proteins of egg white by means of enzymatic hydrolysis” (Consejo Superior de Investigaciones Cientifcas, priority 2004, dated 2012).
Residues, ends and D or L forms follow the SMILES beside them.

Assays:
[1] = tested on: spontaneously hypertensive rats (SHR); details: ovokinin oral 100 mg/kg, ovokinin (2-7) 10 mg/kg; cited from earlier work
[2] = tested on: canine mesenteric arteries; details: listed as ovokinin; cited from earlier work
[3] = biological target: T1, angiotensin converting enzyme (ACE, EC 3.4.15.1) (Oryctolagus cuniculus, UniProt P12822); format: biochemical
T1 sequence (P12822 34-1310): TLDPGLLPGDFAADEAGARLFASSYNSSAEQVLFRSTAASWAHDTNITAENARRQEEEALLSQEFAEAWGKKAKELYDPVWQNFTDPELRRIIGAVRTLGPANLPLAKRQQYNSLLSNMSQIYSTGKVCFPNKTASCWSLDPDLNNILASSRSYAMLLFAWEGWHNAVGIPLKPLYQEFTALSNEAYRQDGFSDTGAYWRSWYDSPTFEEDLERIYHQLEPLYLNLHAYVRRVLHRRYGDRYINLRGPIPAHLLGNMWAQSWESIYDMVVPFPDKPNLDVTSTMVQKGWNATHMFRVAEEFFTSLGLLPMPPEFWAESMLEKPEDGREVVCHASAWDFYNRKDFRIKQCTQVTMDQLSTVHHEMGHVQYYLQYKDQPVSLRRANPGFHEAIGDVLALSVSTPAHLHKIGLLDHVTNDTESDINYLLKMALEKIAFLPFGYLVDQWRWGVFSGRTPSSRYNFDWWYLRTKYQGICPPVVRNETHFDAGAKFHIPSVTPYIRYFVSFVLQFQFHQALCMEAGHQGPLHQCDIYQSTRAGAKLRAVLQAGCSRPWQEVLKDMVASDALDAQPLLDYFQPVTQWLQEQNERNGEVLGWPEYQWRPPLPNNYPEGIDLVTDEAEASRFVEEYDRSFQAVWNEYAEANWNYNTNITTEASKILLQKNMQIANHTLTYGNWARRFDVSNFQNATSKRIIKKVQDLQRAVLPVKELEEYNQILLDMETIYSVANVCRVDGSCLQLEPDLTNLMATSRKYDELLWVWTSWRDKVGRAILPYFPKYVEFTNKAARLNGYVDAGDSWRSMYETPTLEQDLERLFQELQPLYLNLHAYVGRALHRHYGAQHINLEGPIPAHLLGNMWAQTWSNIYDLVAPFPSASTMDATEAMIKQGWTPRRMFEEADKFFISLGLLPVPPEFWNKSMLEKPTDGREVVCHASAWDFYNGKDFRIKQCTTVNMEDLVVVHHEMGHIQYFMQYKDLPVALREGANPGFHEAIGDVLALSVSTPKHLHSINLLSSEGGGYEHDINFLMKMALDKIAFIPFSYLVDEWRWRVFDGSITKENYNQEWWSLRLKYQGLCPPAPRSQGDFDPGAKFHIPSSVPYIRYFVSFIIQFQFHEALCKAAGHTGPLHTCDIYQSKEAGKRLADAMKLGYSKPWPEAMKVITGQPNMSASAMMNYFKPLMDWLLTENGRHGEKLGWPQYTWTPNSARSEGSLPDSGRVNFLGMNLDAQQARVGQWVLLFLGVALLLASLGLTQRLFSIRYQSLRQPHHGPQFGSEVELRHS
Method: (§1) The inhibitory activity of the angiotensin converting enzyme (ACE) is measured in vitro according to the method of D. W. Cushman and H. S. Cheung (Spectrophotometric assay and properties of the angiotensin-converting enzyme of rabbit lung. Biochemical Pharmacology, 1971, 20: 1637-1648), later on modified by Y. K. Kim, S. Yoon, D. Y. Yu, B. Lönnerdal and B. H. Cheung (Novel angiotensin-I-converting enzyme inhibitory peptides derived from recombinant human αs1-casein expressed in Escherichia coli, Journal of Dairy Research 1999, 66, 431-439).
(§2) The substrate hippuryl histidyl leucine (HHL, Sigma Chemicals Co., St. Louis, Mo., USA) is dissolved in a 0.1 M borate buffer with 0.3 M NaCl pH 8.3 to obtain a final concentration of 5 mM. To 100 μl of substrate are added 40 μl of each of the samples whose ACEI activity it is wished to determine. The ACE enzyme (EC 3.4.15.1, Sigma) is added, dissolved in 50% glycerol and diluted 1/10 in bidistilled water at the moment of conducting the assay. The reaction is carried out at 37° C. for 30 minutes in a water-bath. The enzyme is deactivated by lowering the pH with 150 μl of 1 N HCl. The hippuric acid formed is extracted with 1000 μl of ethyl acetate. Following vortex stirring for 20 seconds, it is centrifuged at 4000 rpm for 10 minutes at room temperature. 750 μl of the organic phase are taken and evaporated by heating at 95° C. for 10 minutes. The hippuric acid residue is redissolved in 800 μl of bidistilled water and, following stirring for 20 seconds, the absorbency at 228 nm is measured in a Dur-70 spectrophotometer from Beckman Instruments, Inc., Fullerton, USA.
(§3) In order to calculate the percentage of ACEI activity, the following formula is used
(§4) The blank is used for correcting the background absorbency. This contains substrate, enzyme and 20 μl of bidistilled water in place of the sample, and the reaction is halted at zero time. The control implies a hundred percent of the enzymatic action on the substrate in the absence of inhibitors and contains 20 μl of water in place of the sample and is incubated the same time as the sample.
(§5) The results are presented as the IC50 (μM or μg/ml) or concentration at which 50% of the enzyme's activity is inhibited. The concentration of protein is determined by means of the bicinchonomic acid (BCA) assay (Pierce, Rockford, Ill., USA) using bovine seroalbumin as reference.

ACE = ACE (Homo sapiens, UniProt P12821); details: according to the cited authors; listed as ovokinin; cited from earlier work
Chain of ACE (P12821 30-1306, species assumed): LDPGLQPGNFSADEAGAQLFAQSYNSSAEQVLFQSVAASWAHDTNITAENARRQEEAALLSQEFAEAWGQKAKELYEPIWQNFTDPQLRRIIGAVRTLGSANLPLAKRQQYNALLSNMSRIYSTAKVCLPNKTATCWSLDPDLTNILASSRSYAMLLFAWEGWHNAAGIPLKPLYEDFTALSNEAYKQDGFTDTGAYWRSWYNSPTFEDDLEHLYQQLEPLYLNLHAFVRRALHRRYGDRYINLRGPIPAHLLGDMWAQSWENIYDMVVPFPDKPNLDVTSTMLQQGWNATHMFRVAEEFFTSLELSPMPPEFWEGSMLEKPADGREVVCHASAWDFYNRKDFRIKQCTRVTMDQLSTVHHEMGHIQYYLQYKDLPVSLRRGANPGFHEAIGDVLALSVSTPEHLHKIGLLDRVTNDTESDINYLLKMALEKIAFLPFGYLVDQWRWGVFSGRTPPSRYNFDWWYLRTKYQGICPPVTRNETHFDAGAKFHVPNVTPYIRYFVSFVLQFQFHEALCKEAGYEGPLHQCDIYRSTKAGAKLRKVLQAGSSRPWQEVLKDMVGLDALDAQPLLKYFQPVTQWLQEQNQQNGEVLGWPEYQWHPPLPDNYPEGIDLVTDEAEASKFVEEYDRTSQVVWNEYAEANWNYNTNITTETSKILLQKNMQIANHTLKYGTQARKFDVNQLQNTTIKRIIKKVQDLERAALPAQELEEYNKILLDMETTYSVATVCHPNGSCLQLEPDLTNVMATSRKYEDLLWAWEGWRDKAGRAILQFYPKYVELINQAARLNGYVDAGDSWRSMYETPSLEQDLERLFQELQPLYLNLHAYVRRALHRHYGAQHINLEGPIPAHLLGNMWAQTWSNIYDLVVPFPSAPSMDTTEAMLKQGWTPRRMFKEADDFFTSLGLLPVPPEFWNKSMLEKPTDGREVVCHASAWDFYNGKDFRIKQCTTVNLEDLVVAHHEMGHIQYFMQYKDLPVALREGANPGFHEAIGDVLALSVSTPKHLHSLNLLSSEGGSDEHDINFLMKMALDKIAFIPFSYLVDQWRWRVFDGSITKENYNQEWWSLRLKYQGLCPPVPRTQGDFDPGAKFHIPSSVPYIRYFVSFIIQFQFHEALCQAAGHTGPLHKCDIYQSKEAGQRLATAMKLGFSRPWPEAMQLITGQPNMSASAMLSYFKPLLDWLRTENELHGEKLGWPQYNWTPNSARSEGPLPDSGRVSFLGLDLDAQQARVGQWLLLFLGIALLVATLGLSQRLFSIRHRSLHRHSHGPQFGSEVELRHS

[4] = tested on: angiotensin converting enzyme (ACE) (EC 3.4.15.1, Sigma); test: In vitro inhibitory activity of the angiotensin converting enzyme (ACEI activity); format: biochemical; details: result in words
Method: Measurement of the Inhibitory Activity of the Angiotensin Converting Enzyme (ACEI Activity)
as §1, §2, §3, §4, §5

[5] = tested on: canine mesenteric arteries; details: literature; cited from earlier work
[6] = tested on: spontaneously hypertensive rats (SHR); details: SHR; literature; ovokinin orally 100 mg/kg; cited from earlier work

Row | SMILES | anti-hypertensive / vasodilatory activity in SHR (in words) [1] | vasorelaxing (vasodilatory) activity (in words) [2] | ACEI activity in vitro (in words) ([3]; peptides) | IC50 ([3]; read-out: ACEI activity IC50, synthetic peptides) [µM] | ACEI activity (in words) (ACE) | ACEI activity in vitro [4] | vasorelaxing activity [5] | anti-hypertensive activity [6]
1 | CC(C)C[C@H](NC(=O)[C@H](Cc1ccccc1)NC(=O)[C@@H]1CCCN1C(=O)[C@H](Cc1c[nH]cn1)NC(=O)[C@H](CC(=O)O)NC(=O)[C@H](C)NC(=O)[C@H](CCCNC(=N)N)NC(=O)[C@@H](N)Cc1ccccc1)C(=O)O [SEQ. ID. N^o 5] (H-FRADHPFL-OH; N-terminus and C-terminus assumed) | possessed anti-hypertensive activity | displayed vasorelaxing activity | potent ACEI activity | 3.2 | did not possess ACEI activity |  |  | 
2 | CC(C)C[C@H](NC(=O)[C@H](Cc1ccccc1)NC(=O)[C@@H]1CCCN1C(=O)[C@H](Cc1cnc[nH]1)NC(=O)[C@H](CC(=O)O)NC(=O)[C@H](C)NC(=O)[C@H](CCCNC(=N)N)NC(=O)[C@@H](N)Cc1ccccc1)C(=O)O [SEQ. ID. No 5] (H-FRADHPFL-OH) |  |  |  |  |  | potent ACEI activity in vitro | displayed vasorelaxing activity in canine mesenteric arteries | possessed anti-hypertensive activity when administered orally to spontaneously hypertensive rats (SHR) at doses of 100 mg/kg
